These results are taken from ChEMBL document CHEMBL1127213, “Design of potent K+ channel openers by pharmacophore model” (Bioorg Med Chem Lett, 1993).

SMILES strings stand for the structures.

The species named for test [1] is Rattus norvegicus. Briefly: Percent intrinsic activity was measured in rat aorta. The format is functional.
The species named for test [2] is Rattus norvegicus. In words: Negative logarithm of the molar concentration of compound required to relax rat aorta precontracted with 30 mM KCl by 50%. The format is functional.

The compound `C/N=C(/NC#N)C1=CC(C)(C)Oc2ccc(C#N)cc21` displayed an IA in test [1] of 73%. The same compound had a half-maximal effective concentration (EC50) in test [2] of 0.339 µM.

In test [1], `CNC(=O)C1=CC(C)(C)Oc2ccc(C#N)cc21` displayed an IA of 66.6%. Moreover, in test [2], the response was half-maximal at 0.263 µM (EC50). As for `C/N=C(/S)C1=CC(C)(C)Oc2ccc(C#N)cc21`, in test [1], the IA is 89%. As for `CC(C)(C)/N=C(/NC#N)Nc1cccnc1`, in test [1], the IA was 88%. The midpoint of the response in test [2], the EC50, lay at 0.0912 µM.

As for `CC1(C)Oc2ccc(C#N)cc2[C@@H](N2CCCC2=O)[C@@H]1O` [CROMAKALIM], the IA in test [1] was 74.7%.

Take `CC(N/C(=N\C#N)Nc1ccncc1)C(C)(C)C` (stereo not given) [PINACIDIL ANHYDROUS]: in test [1], the IA amounted to 91.9%. In test [2], this compound gave an EC50 of 0.724 µM.

In general, EC50 refers to the concentration at which the effect is half-maximal. A high value points to a need for much substance.
